Experimental data reported in patent publication US20150374784A1, “COMPOSITIONS AND METHODS FOR REDUCING GERM CELL DEATH” (Los Angeles Biomedical Research Institute at Harbor-UCLA …, priority 2014, published 2015).
Entries after “also recorded” stand apart in the source; their conditions may differ.

Key:
[1] = system: B16 murine melanoma cells; experiment: Metastatic lung tumors in mouse B16 melanoma model (Experiments 3 and 4); format: in vivo
Procedure: A total of 25 young adult mice (10-12 weeks) were randomly divided into 5 groups (n=5 per group). Five mice were used as control. Twenty mice were inoculated intravenously with B16 murine melanoma cells (2×10^5 cells/mouse). Among these 20 tumor-inoculated mice, 5 mice received no further treatment. After one week, the remaining 15 mice were divided into 3 groups and injected with: 1) HNG daily IP (5 mg/Kg body weight) for 2 weeks; 2) CP (200 mg/Kg body weight IP single injection); 3) combined CP with HNG treatment (same doses as above). All mice were sacrificed 3 weeks after tumor inoculation, and 2 weeks after HNG and/or CP treatment. The animals were sacrificed with 5% pentobarbital (200 mg/kg body weight) IP injection after which blood was collected from the right atrium of the heart. One of the testes from each mouse was immersed fixed in Bouin's solution, and the mice were perfused with saline and subsequently perfuse-fixed with 5% glutaraldehyde in 0.05 M cacodylate buffer (pH 7.4). The lungs were dissected out and post fixed in 5% glutaraldehyde solution for 24 hours and stored in cacodylate buffer at 4° C. for the subsequent tumor count (Lue, et al., 2010; Lue, et al., 2009).
Experiment 3 was repeated after inoculation of B16 melanoma tumor at week 1 and then treated with the following treatment starting at week 2 (n=5 mice per group): 1). No treatment; 2). HNG IP injections 5 mg/Kg daily; 3) CP 200 mg/Kg single IP injection; 4) HNG 5 mg/Kg/day+CP; 5). HNG IP injections 15 mg/Kg daily; and 6). HNG 15 mg/Kg/day+CP. All animals were euthanized and perfused with 4% paraformaldehyde at the end of week 3. Lungs and testes were collected and processed as in experiment 3.
B16 melanoma tumors in the lung were quantified by counting the number of tumors on the surface of the lungs under stereomicroscopy (Collisson, et al., 2003; Craft, et al., 2005). The size of the tumor was measured using histomorphometry and expressed as average size of tumor. The appearance of the melanoma cells were reviewed and characterized by an expert pathologist.

B16 (melanoma) = experiment: Autophagy induction in B16 (fluorescent microscopy, western blot of LC3-II); format: cell-based, mouse
[2] = system: HEK293 (normal embryonic kidney cells); experiment: Autophagy induction (LC3-II, mRFP-GFP-LC3) in HEK293; format: cell-based
Source text: (§1) The increased level of LC3-II, a marker of autophagosome was examined by Western blot and immunocytochemistry. The increase of autophagosomes and autolysosomes in HEK293 cells stably expressing mRFP-GFP-LC3, a dual-tag reporter of autophagy, was examined following humanin treatment. In addition, the signaling pathways activated by humanin using a phospho-antibody array in SH-SY5Y cells was investigated. […] Both activation and suppression of autophagy are involved in cancer pathogenesis and treatment, depending on the context.

SH-SY5Y (neuroblastoma) = experiment: Autophagy induction in SH-SY5Y; format: cell-based
Source text: as §1

[3] = system: germ cells in seminiferous tubules; experiment: Germ cell apoptosis in mouse seminiferous tubule cultures ex vivo (TUNEL); format: cell-based
Procedure: A total of 15 young adult (12-13 week-old) mice were used for these ex vivo studies. The animals were sacrificed with a 5% pentobarbital (200 mg/Kg) IP injection. Testes were dissected and after removing the tunica albuginea, seminiferous tubules isolated from testes were cut into small segments under a dissecting microscope and light and dark segments were separated by dissection. Ten to twelve segments were placed (2 mm in length) in each well on a six well plate with 2 ml serum free Ham F-10 culture medium (GIBCO, Life Technologies, Thermo Fisher Scientific Corp., Carlsbad, Calif.) with the following treatments: control (Con, n=10), heat (43° C., 15 minutes, used as a positive control, n=10); HN 10 μg/mL (n=9); DOX 10 mcM (Dox10, n=10); and DOX 10 mcM+Humanin 10 μg/mL (Dox10+HN, n=10). For these experiments, n represents the total number of times the treatment was repeated using different animals. After 12 hours of incubation at 34° C. the seminiferous tubules from each treatment group were used to make “squashed” seminiferous tubule samples on a slide for TUNEL (TdT-mediated dUTP nick-end labeling) assay to detect germ cell apoptosis (Erkkila, et al., 1997; Toppari & Parvinen, 1985). To quantify the rate of germ cell apoptosis under a light microscope at 400× magnification, a square grid fitted within the eyepiece provided a reference area of 62,500 μm^2. The TUNEL positive apoptotic germ cells within the frame of grid were counted in 4 segments of seminiferous tubules in each group. The incidence of germ cell apoptosis was expressed as the number of apoptotic germ cells per mm^2.
A total of 15 mice were used for ex vivo studies. The animals were sacrificed and seminiferous tubules isolated from testes were cut into small segments under a dissecting microscope to identify light (early stages I-IV and late stages XI-XII) of the seminiferous epithelium) and dark (middle stages VII-VIII) segments. Ten to twelve light segments (2 mm in length) were placed per well on a six well plate with 2 ml serum free medium of F-10 Ham nutrient mixture (Gibco, Life Technologies, Grand Island, N.Y.) following these treatments: control (Con, n=15 where n is the number of times the treatment was repeated with segments obtained from different donor animals), heat (43° C., 15 min.; used as a positive control, n=10), HN 10 μg/mL (HN, n=9), doxorubicin 1 μM (Dox1, n=7), doxorubicin 1 μM+HN 10 μg/mL (Dox1+HN, n=7), doxorubicin 10 μM (Dox10, n=10), and doxorubicin 10 μM+HN 10 μg/mL (Dox10+HN, n=10). After 12 hours of incubation at 34° C. with 5% CO2, the seminiferous tubules from the seven treatment groups were used to make “squashed” seminiferous tubule preparations on a slide for TUNEL assay to detect germ cell apoptosis (Erkkila K, et al., 1997). To quantify the rate of germ cell apoptosis, the squashed segments of seminiferous tubules were examined with an American Optical Microscope (Scientific Instruments, Buffalo, N.Y.) with a 40×objective and a 10×eyepiece lens. A square grid fitted within the eyepiece provided a reference area of 62,500 μm^2. The TUNEL positive apoptotic germ cells within the frame of grid were counted in 4 segments of seminiferous tubules in each group. The incidence of germ cell apoptosis was expressed as the number of apoptotic germ cells per mm^2.

[4] = Experiment 4, vs non-treated, HNG at both 5 mg/kg BW and 15 mg/kg BW, CP 200 mg/Kg

Row | Compound | size of the melanoma metastasis on the surface of the lungs ([1]; Experiment 3, vs non-treated tumor-bearing mice) | number of metastatic tumors on the surface of the lungs ([1]; Experiment 3, vs non-treated tumor-bearing mice, HNG 5 mg/Kg daily IP 2 weeks, CP 200 mg/Kg single IP) | number of lung tumors [1, 4] | size of the lung tumors [1, 4] | histology of metastatic lung melanoma cells ([1]; HNG 5 mg/kg BW, CP, or both, monohydrate) | autophagy (B16 (melanoma)) | autophagy [2] | autophagy (SH-SY5Y (neuroblastoma)) | number of apoptotic germ cells induced by DOX ([3]; HN 10 μg/mL + DOX 10 μM, 12 hours) | apoptosis induced by low dose doxorubicin ([3]; HN 10 μg/mL + doxorubicin 1 μM, 12 hours) | germ cell apoptosis, HN treatment alone compared with control ([3]; HN 10 μg/mL, 12 hours ex vivo culture) | heat induced germ cell apoptosis ([3]; HN 10 μg/mL, heat 43° C., 15 min)
1 | O=P1(N(CCCl)CCCl)NCCCO1 (stereo not drawn) [CP, cyclophosphamide monohydrate] | decreased number of tumors but also tumor size | decreased number of tumors | significantly decreased both the number and size of the tumors | significantly decreased both the number and size of the tumors | decreased the number of metastatic melanoma cells; also recorded: induced minor differentiation of melanoma cells | – | – | – | – | – | – | –
2 | MAPRGFSCLLLLTSEIDLPVKRRA [HN, 24-amino acid mitochondrial derived peptide] | – | – | – | – | – | induces autophagy | induces autophagy | induces autophagy | significantly reduced the number of apoptotic germ cells | did not significantly decrease apoptosis | had no significant effect on germ cell apoptosis | prevented the heat induced germ cell apoptosis
